Molecular target: T1, 5-hydroxytryptamine receptor 1A (Homo sapiens, UniProt P08908)
T1 sequence (P08908 whole entry): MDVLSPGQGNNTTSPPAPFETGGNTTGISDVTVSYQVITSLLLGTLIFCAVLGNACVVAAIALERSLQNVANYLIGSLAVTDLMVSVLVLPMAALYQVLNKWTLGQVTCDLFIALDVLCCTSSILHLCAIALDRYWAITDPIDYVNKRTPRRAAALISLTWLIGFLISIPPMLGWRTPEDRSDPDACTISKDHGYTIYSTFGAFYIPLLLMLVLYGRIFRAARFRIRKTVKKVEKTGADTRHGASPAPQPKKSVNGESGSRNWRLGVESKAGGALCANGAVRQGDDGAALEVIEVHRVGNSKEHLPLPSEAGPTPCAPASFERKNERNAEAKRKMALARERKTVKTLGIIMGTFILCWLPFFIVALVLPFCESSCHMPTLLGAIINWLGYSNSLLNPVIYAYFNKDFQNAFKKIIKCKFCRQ

| Compound | Ki [nM] |
| --- | --- |
| COc1ccc(CN(CCN(C)C)c2ccccn2)cc1 | > 10000 |
| Cn1cc(C(F)(F)F)nc1-c1ccc(OCC(O)CNCCOc2ccc(O)c(C(N)=O)c2)cc1 (configuration not stated) | 7360 |
| OC(CNCC(O)C1CCc2cc(F)ccc2O1)C1CCc2cc(F)ccc2O1 (configuration not stated) [CAS_99200-09-6] | 25.8 |
| O=c1ccc2[nH]cc(C3=CCNCC3)c2[nH]1 [CAS_127792-75-0] | 3750 |
| Cc1nc2c(C)cccn2c(=O)c1CCN1CCC(c2noc3cc(F)ccc23)CC1 [CAS_129029-23-8] | 13.9 |
| CN1C[C@@H](NS(=O)(=O)N(C)C)C[C@@H]2c3cccc4c3c(cn4C)C[C@H]21 [MESULERGINE] | 197 |
| CCN1CCCC1CNC(=O)c1cc(S(N)(=O)=O)ccc1OC (configuration not stated) [N-[(1-ethylpyrrolidin-2-yl)methyl]-2-methoxy-5-sulfamoylbenzamide] | > 10000 |

— BindingDB's records for doi:10.1016/0006-2952(93)90073-6 (Janssen Research Foundation, 1993)
